Key:
Type in all cases: in vivo
Set-up in all cases: key: 1=total damage; 9=no action; Ratings of from 1 to 4 (especially from 1 to 3) indicate good to very good herbicidal action
[1] = tested on: Avena; assay: Post-emergence herbicidal action (Example B2); conditions: 2000 g a.i./ha, sprayed at 4- to 6-leaf stage, evaluated after approximately 18 days, scale of nine ratings
Method: (§1) Monocotyledonous and dicotyledonous test plants are grown in a greenhouse in plastics pots containing standard soil and at the 4- to 6-leaf stage are sprayed with an aqueous suspension or emulsion of the test substances of formula I, prepared from a 25% emulsifiable concentrate (Example F1, c) in WO 97/34485, pages 9 and 10), at a rate of application corresponding to 2000 g of active ingredient/ha (500 liters water/ha). The test plants are then grown on in the greenhouse under optimum conditions. After approximately 18 days' test duration, the test is evaluated in accordance with a scale of nine ratings (1=total damage, 9=no action). Ratings of from 1 to 4 (especially from 1 to 3) indicate good to very good herbicidal action.
(§2) Test plants: Avena, Setaria, Sinapis, Stellaria

[2] = tested on: Setaria; assay: Post-emergence herbicidal action (Example B2); conditions: 2000 g a.i./ha, sprayed at 4- to 6-leaf stage, evaluated after approximately 18 days, scale of nine ratings
Method: as §1, §2

[3] = tested on: Sinapis; assay: Post-emergence herbicidal action (Example B2); conditions: 2000 g a.i./ha, sprayed at 4- to 6-leaf stage, evaluated after approximately 18 days, scale of nine ratings
Method: as §1, §2

[4] = tested on: Stellaria; assay: Post-emergence herbicidal action (Example B2); conditions: 2000 g a.i./ha, sprayed at 4- to 6-leaf stage, evaluated after approximately 18 days, scale of nine ratings
Method: as §1, §2

[5] = tested on: Avena; assay: Pre-emergence herbicidal action (Example B1); conditions: 2000 g a.i./ha, sprayed immediately after sowing, evaluated after 3 weeks, scale of nine ratings
Method: (§3) Monocotyledonous and dicotyledonous test plants are sown in standard soil in plastics pots. Immediately after sowing, the test compounds, each in the form of an aqueous suspension or emulsion prepared from a 25% emulsifiable concentrate (Example F1, c) in WO 97/34485, pages 9 and 10), are applied by spraying at a rate of application of 2000 g of active ingredient/ha (500 liters water/ha). The test plants are then grown in a greenhouse under optimum conditions. After 3 weeks' test duration, the test is evaluated in accordance with a scale of nine ratings (1=total damage, 9=no action). Ratings of from 1 to 4 (especially from 1 to 3) indicate good to very good herbicidal action.
as §2

[6] = tested on: Setaria; assay: Pre-emergence herbicidal action (Example B1); conditions: 2000 g a.i./ha, sprayed immediately after sowing, evaluated after 3 weeks, scale of nine ratings
Method: as §3, §2

[7] = tested on: Sinapis; assay: Pre-emergence herbicidal action (Example B1); conditions: 2000 g a.i./ha, sprayed immediately after sowing, evaluated after 3 weeks, scale of nine ratings
Method: as §3, §2

[8] = tested on: Stellaria; assay: Pre-emergence herbicidal action (Example B1); conditions: 2000 g a.i./ha, sprayed immediately after sowing, evaluated after 3 weeks, scale of nine ratings
Method: as §3, §2

C#CCn1c(-c2nn(C)c(S(C)(=O)=O)c2C)c(F)cc(Cl)c1=O [Example 28.100]
Post-emergence action: Avena (rating) [1]: 1
Post-emergence action: Setaria (rating) [2]: 1
Post-emergence action: Sinapis (rating) [3]: 1
Post-emergence action: Stellaria (rating) [4]: 1
Pre-emergence action: Avena (rating) [5]: 1
Pre-emergence action: Setaria (rating) [6]: 1
Pre-emergence action: Sinapis (rating) [7]: 1
Pre-emergence action: Stellaria (rating) [8]: 1

Cn1nc(-c2c(Cl)cc(Cl)c(=O)n2C)c(Cl)c1OC(F)F [Example 1.003]
Post-emergence action: Avena (rating) [1]: 1
Post-emergence action: Setaria (rating) [2]: 1
Post-emergence action: Sinapis (rating) [3]: 1
Post-emergence action: Stellaria (rating) [4]: 1
Pre-emergence action: Avena (rating) [5]: 1
Pre-emergence action: Setaria (rating) [6]: 1
Pre-emergence action: Sinapis (rating) [7]: 1
Pre-emergence action: Stellaria (rating) [8]: 1

Cn1nc(-c2c(F)cc(Cl)c(=O)n2CC#N)c(Cl)c1OC(F)F [Example 1.126]
Post-emergence action: Avena (rating) [1]: 1
Post-emergence action: Setaria (rating) [2]: 1
Post-emergence action: Sinapis (rating) [3]: 1
Post-emergence action: Stellaria (rating) [4]: 1
Pre-emergence action: Avena (rating) [5]: 1
Pre-emergence action: Setaria (rating) [6]: 1
Pre-emergence action: Sinapis (rating) [7]: 1
Pre-emergence action: Stellaria (rating) [8]: 1

CCSCCn1c(-c2nn(C)c(OC(F)F)c2Cl)c(F)cc(Cl)c1=O [Example 1.156]
Post-emergence action: Avena (rating) [1]: 1
Post-emergence action: Setaria (rating) [2]: 1
Post-emergence action: Sinapis (rating) [3]: 1
Post-emergence action: Stellaria (rating) [4]: 1
Pre-emergence action: Avena (rating) [5]: 1
Pre-emergence action: Setaria (rating) [6]: 1
Pre-emergence action: Sinapis (rating) [7]: 1
Pre-emergence action: Stellaria (rating) [8]: 1

C=CCn1c(-c2nn(C)c(OC(F)F)c2Cl)c(F)cc(Cl)c1=O [Example 1.080]
Post-emergence action: Avena (rating) [1]: 1
Post-emergence action: Setaria (rating) [2]: 1
Post-emergence action: Sinapis (rating) [3]: 1
Post-emergence action: Stellaria (rating) [4]: 1
Pre-emergence action: Avena (rating) [5]: 1
Pre-emergence action: Setaria (rating) [6]: 1
Pre-emergence action: Sinapis (rating) [7]: 1
Pre-emergence action: Stellaria (rating) [8]: 1

Cn1nc(-c2ccc(Cl)c(=O)n2C)c(Cl)c1OC(F)F [Example 1.001]
Post-emergence action: Avena (rating) [1]: 1
Post-emergence action: Setaria (rating) [2]: 1
Post-emergence action: Sinapis (rating) [3]: 1
Post-emergence action: Stellaria (rating) [4]: 1
Pre-emergence action: Avena (rating) [5]: 1
Pre-emergence action: Setaria (rating) [6]: 1
Pre-emergence action: Sinapis (rating) [7]: 1
Pre-emergence action: Stellaria (rating) [8]: 1

C#CCn1c(-c2nn(C)c(C(F)(F)F)c2Cl)c(F)cc(Cl)c1=O [Example 9.100]
Post-emergence action: Avena (rating) [1]: 2
Post-emergence action: Setaria (rating) [2]: 2
Post-emergence action: Sinapis (rating) [3]: 1
Post-emergence action: Stellaria (rating) [4]: 1
Pre-emergence action: Avena (rating) [5]: 1
Pre-emergence action: Setaria (rating) [6]: 1
Pre-emergence action: Sinapis (rating) [7]: 1
Pre-emergence action: Stellaria (rating) [8]: 1

CCn1c(-c2nn(C)c(OC(F)F)c2Cl)c(F)cc(Cl)c1=O [Example 1.004]
Post-emergence action: Avena (rating) [1]: 1
Post-emergence action: Setaria (rating) [2]: 2
Post-emergence action: Sinapis (rating) [3]: 1
Post-emergence action: Stellaria (rating) [4]: 1
Pre-emergence action: Avena (rating) [5]: 1
Pre-emergence action: Setaria (rating) [6]: 1
Pre-emergence action: Sinapis (rating) [7]: 1
Pre-emergence action: Stellaria (rating) [8]: 1

Source: US20020055639A1, “Pyrazole derivatives as herbicides” (priority 1997, published 2002)
